Measured values published in patent publication US20040242459A1 (priority 2001, published 2004).

Tests used:
[1] = target: T1, recombinant human PPARα (GST-PPARα) (Homo sapiens, UniProt Q07869); test: Scintillation Proximity Assay, displacement of [3H2]Compound A from PPARα; type: binding
T1 construct: The full length human cDNAs for PPARδ and PPARα were subcloned into the pGEX-KT expression vector; made in house; host or cells: E. coli
T1 sequence (Q07869 1-468): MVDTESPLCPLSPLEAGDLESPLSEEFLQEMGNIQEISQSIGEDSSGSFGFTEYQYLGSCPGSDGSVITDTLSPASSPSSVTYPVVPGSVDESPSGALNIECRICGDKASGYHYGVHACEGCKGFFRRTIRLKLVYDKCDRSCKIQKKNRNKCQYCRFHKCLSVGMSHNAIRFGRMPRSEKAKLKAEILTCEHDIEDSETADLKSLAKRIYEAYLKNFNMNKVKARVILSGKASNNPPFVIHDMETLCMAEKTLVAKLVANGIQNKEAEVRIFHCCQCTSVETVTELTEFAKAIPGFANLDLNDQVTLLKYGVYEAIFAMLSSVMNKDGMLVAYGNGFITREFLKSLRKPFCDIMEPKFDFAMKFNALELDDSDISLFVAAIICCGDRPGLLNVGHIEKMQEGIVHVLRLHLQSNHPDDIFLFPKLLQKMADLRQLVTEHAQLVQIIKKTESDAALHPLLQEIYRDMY
Description: (§1) As an approach to identifying human PPAR agonists, a Scintillation Proximity Assay was used to characterize PPAR-γ, PPAR-δ, and PPAR-α ligands.
(§2) Human PPARγ2, human PPARδ and human PPARα were expressed as GST-fusion proteins in E. coli. The full length human cDNA for PPARγ 2 was subcloned into the pGEX-2 T expression vector (Amersham Pharmacia Biotech, Inc.). The full length human cDNAs for PPARδ and PPARα were subcloned into the pGEX-KT expression vector (Amersham Pharmacia Biotech, Inc.). E. coli containing the respective plasmids were propagated, induced, and harvested by centrifugation. The resuspended pellet was broken in a French press and debris removed by centrifugation. Recombinant human PPAR receptors were purified by affinity chromatography on glutathione sepharose. After application to the column, and one wash, receptor was eluted with glutathione. Glycerol (10%) was added to stabilize the receptor and aliquots were stored at −80° C.
(§3) After incubation for ˜16 h at 15° C. with shaking, the assay plates were counted in a Packard Topcount with quench correction.

[2] = target: T2, recombinant human PPARδ (GST-PPARδ) (Homo sapiens, UniProt Q03181); test: Scintillation Proximity Assay, displacement of [3H2]Compound B from PPARδ; type: binding; details: human PPARδ binding; read-out: IC50 (μM: SPA or BND) Delta
T2 construct: The full length human cDNAs for PPARδ and PPARα were subcloned into the pGEX-KT expression vector; made in house; host or cells: E. coli
T2 sequence (Q03181 1-441): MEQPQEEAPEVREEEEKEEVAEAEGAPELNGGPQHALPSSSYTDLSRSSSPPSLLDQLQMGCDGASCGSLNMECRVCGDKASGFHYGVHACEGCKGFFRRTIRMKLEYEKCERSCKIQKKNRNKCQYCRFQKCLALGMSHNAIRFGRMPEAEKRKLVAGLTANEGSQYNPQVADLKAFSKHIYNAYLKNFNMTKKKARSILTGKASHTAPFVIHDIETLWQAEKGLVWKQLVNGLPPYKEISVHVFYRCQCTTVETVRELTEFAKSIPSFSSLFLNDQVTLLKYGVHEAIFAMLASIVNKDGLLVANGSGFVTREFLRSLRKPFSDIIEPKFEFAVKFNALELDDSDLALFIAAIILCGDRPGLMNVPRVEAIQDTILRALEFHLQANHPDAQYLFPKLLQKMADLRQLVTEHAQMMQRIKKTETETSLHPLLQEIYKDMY
Description: as §1, §2, §3

[3] = tested on: adjuvant-induced arthritis in female Lewis rats
Protocol: Nine groups of 10 rats each were injected with an emulsion containing 0.5 mg of Mycobacterium butyricum in 0.1 ml of light mineral oil, and a negative control group of 10 rats was not injected with adjuvant. Body weights, primary (injected) and contralateral (non-injected) paw volumes (determined by mercury displacement plethysmography) and lateral radiographs (obtained under Ketamine and Xylazine anesthesia) were determined before (day-1) and at various time points including 21 days following adjuvant injection. The rats were anesthetized with an intramuscular injection of 0.03-0.1 ml of a combination of Ketamine (87 mg/kg) and Xylazine (13 mg/kg) for radiographs and injection of adjuvant. Lateral to medial radiographs were made of both hind paws on days 0 and 21 for using the Faxitron (45 kVp, 30 seconds or 45 kVp, 1 second) and Kodak X-OMAT TL film, and were developed in an automatic processor. […] Specific criteria were used to establish the numerical grade of severity for each radiographic change. The maximum possible score per foot was 26. Compounds or vehicle were administered prophylactically beginning post injection of adjuvant and continuing for 21 days. The Compounds were prepared weekly, refrigerated in the dark until used, and vortex mixed immediately prior to administration. […] The liver, thymus and spleens of all rats were removed and weighed and both hind paws were removed and radiographed.
Two-factor (‘treatment’ and ‘time’) analysis of variance with repeated measures on ‘time’ were applied to the percent changes for body weight and foot volumes and to the rank-transformed radiographic total scores. A post hoc Dunnett's test was conducted to compare the effect of treatments to vehicle. A one-way analysis of variance was applied to the thymic and spleen weights followed by the Dunnett's test to compare the effect of treatments to vehicle.
Compounds or vehicle (0.5% Methocel in sterile water) were administered by oral gavage once daily for 21 days following induction of arthritis in female Lewis rats via the sub plantar injection of 0.1 ml of light mineral oil containing 0.5 mg of Mycobacterium butyricum. Control animals were not injected with adjuvant. Body weights were measured 1 day prior to (i.e. day 0) and at 14 and 21 days post induction of arthritis. The data in Table 1 represent the mean increase or decrease in body weight ±1 standard deviation for groups of 9 to 10 animals.
Compounds or vehicle (0.5% Methocel in sterile water) were administered by oral gavage once daily for 21 days following induction of arthritis in female Lewis rats via the sub plantar injection of 0.1 ml of light mineral oil containing 0.5 mg of Mycobacterium butyricum. Control animals were not injected with adjuvant.
(§4) Injected foot volumes were measured by mercury displacement plethysmography prior to induction of arthritis, and on days 4, 14 and 21 post induction of arthritis. The data represent the mean increase in foot volume ±1 standard deviation for groups of 9 to 10 animals. The extent of paw swelling in compound-treated animals was compared to the mean of that in the vehicle-treated group, and percentage inhibition was calculated for each dose level of compound.
as §4, with “Contralateral foot” for “Injected foot”, “prior to,” for “prior to induction of arthritis,”, “and at” for “and on”, “days” for “days 4,”
[…] Data represent the mean weights of organs in mg ±1 standard deviation for groups of 9 to 10 animals.
Total radiographic scores were derived from examination of lateral radiographs obtained prior to, and on day 21 post induction of arthritis.

[4] = tested on: PPAR-α, PPAR-γ and PPAR-δ; test: Classification of ligands according to their PPAR activity (Table A); parameters: species or system human
[5] = target: T3, recombinant human PPARγ (GST-PPARγ) (Homo sapiens, UniProt P37231); test: Scintillation Proximity Assay, displacement of [3H2]Compound A from PPARγ; type: binding; details: SPA, radioligand
T3 construct: The full length human cDNA for PPARγ 2 was subcloned into the pGEX-2 T expression vector; made in house; host or cells: E. coli
T3 sequence (P37231 1-505): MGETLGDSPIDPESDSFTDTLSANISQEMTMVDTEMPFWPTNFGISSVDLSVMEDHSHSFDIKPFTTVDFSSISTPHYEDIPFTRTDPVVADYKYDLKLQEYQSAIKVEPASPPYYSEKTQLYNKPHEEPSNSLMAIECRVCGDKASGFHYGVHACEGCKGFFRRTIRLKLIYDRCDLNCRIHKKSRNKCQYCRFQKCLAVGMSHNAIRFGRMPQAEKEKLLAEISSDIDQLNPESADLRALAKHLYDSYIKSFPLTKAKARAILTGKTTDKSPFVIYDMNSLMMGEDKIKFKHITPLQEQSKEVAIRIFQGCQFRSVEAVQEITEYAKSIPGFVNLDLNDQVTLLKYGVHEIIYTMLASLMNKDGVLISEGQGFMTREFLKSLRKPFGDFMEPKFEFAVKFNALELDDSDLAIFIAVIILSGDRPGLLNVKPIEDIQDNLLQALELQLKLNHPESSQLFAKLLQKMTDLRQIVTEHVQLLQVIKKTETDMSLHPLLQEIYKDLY
Description: as §1, §2, §3

[6] = weight at necropsy, day of euthanasia 21 (Compound 1, indomethacin) or 15 (Compounds 2-6), mean ± SD

| Kd ([1]; SPA, radioligand) | Kd [5] | Structure (SMILES) | IC50 ([1]; human PPARα binding, read-out: IC50 (μM: SPA or BND) Alpha) | IC50 [2] | Change in Secondary Foot Volume Day 14-0 ([3]; contralateral paw, p.o. q.d., Compounds 1, 2, 4, 6 30 mg/kg/day, Compound 3 50, Compound 5 100, indomethacin 2, mean ± SD) | Secondary Foot Volume % Inhibition Compared to Vehicle Day 14-0 ([3]; contralateral paw, same doses p.o. q.d.) | Change in Primary Foot Volume Day 4-0 ([3]; injected paw, p.o. q.d., Compounds 1, 2, 4, 6 30 mg/kg/day, Compound 3 50, Compound 5 100, indomethacin 2, mean ± SD) | Primary Foot Volume % Inhibition Compared to Vehicle Day 4-0 ([3]; injected paw, same doses p.o. q.d.) | Change in Primary Foot Volume Day 14-0 ([3]; injected paw, same doses p.o. q.d., mean ± SD) | change in body weight Day 14-0 ([3]; p.o. q.d., Compounds 1, 2, 4, 6 30 mg/kg/day, Compound 3 50, Compound 5 100, indomethacin 2 mg/kg/day, mean ± SD) | prevention of swelling of primary or secondary paws ([3]; up to day 14, rats then euthanized) | Spleen [3, 6] | Thymus [3, 6] | PPAR Activity [4] |
| --- | --- | --- | --- | --- | --- | --- | --- | --- | --- | --- | --- | --- | --- | --- |
|  |  | O=C(O)c1c(Sc2ccccc2)c2cc(Cl)ccc2n1Cc1ccc(Cl)cc1 [Compound 3] | > 10 µM | > 50 µM | 869 ± 291 µL | 0% | 1853 ± 262 µL | 0% | 2606 ± 587 µL | −6.6 ± 6.1 grams | failed to prevent swelling of either the primary or secondary paws | 720.5 ± 155.1 mg | 152.7 ± 27.9 mg | Gamma Antagonist |
| ~0.01 µM | ~0.0027 µM | CCCc1c(OCCCCOc2cccc(CC(=O)O)c2)ccc2c(-c3ccccc3)noc12 [Compound A, (3-(4-(3-phenyl-7-propyl-6-benz-[4,5]-isoxazoloxy)butyloxy))phenylacetic acid, reference compound] |  |  |  |  |  |  |  |  |  |  |  |  |
